# Measurements taken from patent publication US11078152B2, “Method for resolution of baclofen salts” (Universite de Rouen, priority 2016, dated 2021).
# Experiments:
# [1] = Determination of the solubility of the racemic Bahma salt in a given solvent at a given temperature; type: physicochemical; details: for Solubility 1M HCl: aqueous 1M HCl solution; for Solubility 2M HCl: aqueous 2M HCl solution; for Solubility: n-propanol/water azeotropic mixture; for Solubility Water: pure water
# Protocol: Determination of the Solubility
# The solubility of a Bahma salt in a given solvent was calculated, for a given temperature and in a given volume of solvent, via the following formula:
# [formula] in which mBahma is the mass of the Bahma salt introduced in grams to reach saturation; ρsolvent is the density of the solvent in g.mL^−1; and Vsolvent is the volume of the solvent in mL.
# The solubility of the racemic Bahma salt at various temperatures was determined in the n-propanol/water azeotropic mixture (ρ=0.870 g.mL^−1).
# The solubility of the racemic Bahma salt at various temperatures was determined in pure water (ρ=1 g.mL^−1), in aqueous 1M HCl solution (ρ=1.017 g.mL^−1) and in aqueous 2M HCl solution (ρ=1.030 g.mL^−1).
# [2] = background statement, no test described; cited from earlier work
smiles,measurement,setting,value
"NCC(CC(=O)O)c1ccc(Cl)cc1.O=C(O)C=CC(=O)O (racemic) [racemic Bahma salt, baclofen hydrogen maleate]",Solubility 1M HCl,[1]; 20° C.,4.51%
same,Solubility 1M HCl,[1]; 35° C.,6.86%
same,Solubility 1M HCl,[1]; 50° C.,12.54%
same,Solubility 2M HCl,[1]; 20° C.,6.48%
same,Solubility 2M HCl,[1]; 35° C.,11.44%
same,Solubility 2M HCl,[1]; 50° C.,22.24%
same,Solubility,[1]; 20° C.,1.49%
same,Solubility,[1]; 35° C.,2.80%
same,Solubility,[1]; 50° C.,4.81%
same,Solubility Water,[1]; 20° C.,0.75%
same,Solubility Water,[1]; 35° C.,1.00%
same,Solubility Water,[1]; 50° C.,1.78%
"NC[C@H](CC(=O)O)c1ccc(Cl)cc1 [R(−) enantiomer, (R)-4-amino-3-(4-chlorophenyl)butanoic acid]",activity relative to the S(+) enantiomer,[2],three times more active than the S(+) enantiomer
